Laboratory results published in US20210315893A1 (Galapagos NV, priority 2017, published 2021).
pEC50: −log10 of the molar value.

Legend:
[1] = molecular target: T1, human GPCR sphingosine 1-phosphate receptor 1 (Homo sapiens, UniProt P21453); assay: S1PR1 selectivity Ca2+ flux assay (antagonist readout); type: cell-based; settings: antagonist readout, CHO cells overexpressing human S1PR1 and Gq, S1P at EC80 (6 nM); read-out: S1P1 EC50 (nM), S1P1 antagonist EC50
T1 construct: host or cells: CHO
In short: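 CHO cells stably overexpressing human S1PR1, starved 1 h in 0.1% FAF BSA medium, then Fluo 8 dye-loaded. Compound added, then after 15 min at 37 °C, S1P-evoked Ca2+ flux recorded. Maximal signal/background ratio normalized to controls as % inhibition; IC50 from four-parameter logistic fit.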

HFL-1 cells [2] = assay: IL8 assay in the presence of Human Serum Albumin; settings: HFL1, read-out: HSA IL8 EC50
[3] = test system: bleomycin induced pulmonary fibrosis in mice; assay: Prophylactic bleomycin induced pulmonary fibrosis 14-day mice model; type: in vivo; settings: 10 mg/kg BID
Experimental: The aim of the study is totest the efficacy of atest compound at three different doses ina 14-day model of bleomycin induced pulmonary fibrosis in mice.
(§1) This study is carried out on C527BL/6N male mice, supplied by Charles River, Italy, which are acclimatized for at least 5 days in an environment maintained at 22° C., at 55% relative humidity, with 15-20 air changes per h under light cycles of 12 h. Mice pelleted food and water are provided ad libitum.
The solvent for the test solutions is prepared by adding 0.5 g of hydroxyethylcellulose (Natrosol) into 500 mL Aqua distillate (0.1%) under continuous stirring without heating for 5 h on a magnetic stirrer. Anesthetic solution is prepared by adding 1 mL of Narketan (Narketan 10, Vetoquinol, Bern, Switzerland, 03605877535982) and 0.5 mL of Rompun (Rompun, 2%. Bayer, Leverkusen, Germany) into 9 mL saline. The resulting solution is administered at 10 mL/kg.
Prior to i.n administration, mice are anesthetized i.p. with the anesthetic solution described above.
Fresh pirfenidone formulation is prepared daily in 0.1% Natrosol formulations to a final concentration of 5 mg/mL. […]
(§2) Pulmonary histological changes are assessed using Matsuse modification of Ashcroft score (Ashcroft et al., 1988; Matsuse et al., 1999). […]

[4] = test system: bleomycin induced pulmonary fibrosis in mice; assay: Therapeutic bleomycin induced pulmonary fibrosis 21-day mice model; type: in vivo; settings: 10 mg/kg BID
Experimental: The aim of the study is to test the efficacy of a test compound at three different doses in a 21-day model of bleomycin induced pulmonary fibrosis in mice.
as §1, with “C57BL/6N” for “C527BL/6N”
The solvent for the test solutions is prepared by adding 0.5 g of hydroxyethylcellulose (Natrosol) into 500 mL Aqua distillate (0.1%) under continuous stirring without heating for 5 h on a magnetic stirrer.
Fresh Nintedanib formulation is prepared daily in 0.1% Natrosol formulations to a final concentration of 5 mg/mL. Before dosing, animals are weighed and the Nintedanib amount administered is adjusted accordingly to individual weights corresponding to 10 mL/kg body weight, once daily p.o.,
Finally, test compound solutions are prepared by dissolving the suitable amount of said test compound in PEG 400 (20% of the final volume) then MC 0.5% (80% of the final volume) to reach final concentrations of 1 mg/mL, 0.3 mg/mL and 0.1 mg/mL, thus yielding compound for a doses of 10 mg/kg, 3 mg/kg and 1 mg/kg. […]
as §2

HFL-1 cells [5] = assay: IL-8 production assay (S1P induced IL-8); type: cell-based; settings: Homo sapiens, HFL1; S1P (1 μM) induced IL-8 in HFL-1 cells, starvation medium without HSA; read-out: IL8 EC50
In short: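 HFL-1 human fetal lung fibroblasts were starved in F12K/1% FBS, then given compound for 1 h (10-point, 1/3 dilution, 30 μM top, 0.3% DMSO final). S1P was added at 1 μM final for 16–24 h at 37 °C, and secreted IL-8 in supernatant quantified by ELISA.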

S1PR2 = molecular target: T2, S1PR2 (Homo sapiens, UniProt O95136); assay: S1PR2 binding assay (competition with radioactively labeled S1P, SpA); settings: membranes from stable cell line over expressing S1PR2, SpA beads; read-out: S1P2 EC50 (nM), S1PR2 binding EC50
T2 construct: expressed in transfected cells
In short: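 Competition with [3H]S1P for membranes from a stable S1PR2-overexpressing cell line, 20 μg/well, captured on PVT-WGA SPA beads, in 20 mM Tris pH 7.5, 10 mM MgCl2, 100 mM NaCl, 0.4% fatty-acid-free BSA, 1 mM Na3VO4. 2 h at room temperature, then centrifugation and scintillation counting.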

[6] = molecular target: T3, human GPCR sphingosine 1-phosphate receptor 5 (Homo sapiens, UniProt Q9H228); assay: S1PR5 selectivity Ca2+ flux assay (antagonist readout); type: cell-based; settings: CHO cells overexpressing human S1PR5 and Gq, agonist at EC80 (20 nM), read-out: S1P5 EC50 (nM), S1P5 antagonist EC50
T3 construct: host or cells: CHO
In short: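 CHO cells stably coexpressing human S1PR5 and Gq were serum-starved, Fluo 8-loaded and preincubated 15 min at 37° C with compound. They were then stimulated at EC80 with an S1PR5-specific agonist, and calcium fluorescence was recorded for 3 min. Peak/baseline ratios were normalized to controls and fitted to a four-parameter IC50 equation.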

[7] = molecular target: T4, human GPCR sphingosine 1-phosphate receptor 2 (Homo sapiens, UniProt O95136); assay: S1PR2 antagonist Ca2+ flux assay; type: cell-based; settings: antagonist mode, CHO-S1PR2 cells, S1P at EC80, Ca2+ fluorescence; read-out: S1P2 EC50 (nM), S1P2 antagonist EC50
T4 construct: host or cells: CHO
In short: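 CHO cells stably expressing human S1PR2, serum-starved 1 h, Fluo8-loaded; compound-evoked Ca2+ fluorescence read 3 min (agonist mode), then after 15 min S1P at EC80 added and read 3 min (antagonist mode). Max/baseline fluorescence ratios normalised to vehicle and S1P EC100 or EC50 controls; EC50 derived.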

T1 sequence (P21453 whole entry): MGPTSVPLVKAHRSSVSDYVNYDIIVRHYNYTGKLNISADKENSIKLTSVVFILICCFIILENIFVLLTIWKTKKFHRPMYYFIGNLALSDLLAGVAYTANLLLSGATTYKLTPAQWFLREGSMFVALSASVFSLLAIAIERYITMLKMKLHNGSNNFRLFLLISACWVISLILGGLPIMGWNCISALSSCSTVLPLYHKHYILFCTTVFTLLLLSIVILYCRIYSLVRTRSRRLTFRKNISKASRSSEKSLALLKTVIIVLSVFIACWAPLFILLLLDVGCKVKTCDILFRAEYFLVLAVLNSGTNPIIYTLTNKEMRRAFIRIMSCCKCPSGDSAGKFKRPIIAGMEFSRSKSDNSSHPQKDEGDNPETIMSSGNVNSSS
T2 sequence (O95136 whole entry): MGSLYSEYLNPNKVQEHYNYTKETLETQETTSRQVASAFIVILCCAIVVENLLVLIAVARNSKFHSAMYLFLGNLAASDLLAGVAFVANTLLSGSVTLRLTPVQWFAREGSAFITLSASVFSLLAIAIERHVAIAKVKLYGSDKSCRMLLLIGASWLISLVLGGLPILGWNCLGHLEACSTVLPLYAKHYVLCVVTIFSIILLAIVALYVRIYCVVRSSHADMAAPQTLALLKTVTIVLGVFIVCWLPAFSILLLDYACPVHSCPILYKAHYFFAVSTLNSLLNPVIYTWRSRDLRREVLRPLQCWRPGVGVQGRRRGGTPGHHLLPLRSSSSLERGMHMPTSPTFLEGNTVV
T4 sequence (O95136 whole entry): as above
T3 sequence (Q9H228 whole entry): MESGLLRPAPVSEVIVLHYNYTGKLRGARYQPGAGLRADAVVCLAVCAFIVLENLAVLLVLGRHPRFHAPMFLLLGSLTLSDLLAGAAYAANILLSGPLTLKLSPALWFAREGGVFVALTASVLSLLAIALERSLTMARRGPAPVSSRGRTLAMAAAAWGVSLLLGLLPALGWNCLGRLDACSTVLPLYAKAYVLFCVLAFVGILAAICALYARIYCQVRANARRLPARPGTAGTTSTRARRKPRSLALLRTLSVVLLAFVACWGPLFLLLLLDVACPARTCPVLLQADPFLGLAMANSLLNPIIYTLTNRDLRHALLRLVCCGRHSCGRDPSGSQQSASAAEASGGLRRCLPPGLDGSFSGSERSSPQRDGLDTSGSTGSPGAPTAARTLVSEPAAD

| EC50 [1] [nM] | pEC50 (HFL-1 cells [2]) | pEC50 (HFL-1 cells [5]) | EC50 (S1PR2) [nM] | EC50 [6] [nM] | EC50 [7] [nM] | SMILES | Ashcroft score difference [3] | Ashcroft score difference [4] |
| --- | --- | --- | --- | --- | --- | --- | --- | --- |
| 3620 | 7.29 | 8.24 |  |  |  | O=C(O)Cn1nc(Cc2nc3cc(Cl)c(OCC4CC4)cc3[nH]2)c2ccccc2c1=O [Compound 115, 2-[4-[[5-chloro-6-(cyclopropylmethoxy)-1H-benzimidazol-2-yl]methyl]-1-oxo-phthalazin-2-yl]acetic acid] | statistically significant Ashcroft score difference | statistically significant Ashcroft score difference |
| ≥ 19800 | 6.92 | 7.73 | 124 | 19800 | 57.1 | C[C@@H]1CN(C(=O)Cn2nc(Cc3nc4cc(OCC(F)F)c(C#N)cc4[nH]3)c3ccccc3c2=O)C[C@H](C)O1 [Compound 177, 6-(2,2-difluoroethoxy)-2-[[3-[2-[(2S,6R)-2,6-dimethylmorpholin-4-yl]-2-oxo-ethyl)-4-oxo-phthalazin-1-yl]methyl]-3H-benzimidazole-5-carbonitrile] |  |  |
